Data: ChEMBL document CHEMBL5625160, “Development of a next-generation endogenous OCT4 inducer and its anti-aging effect in vivo” (Eur J Med Chem, 2023)
pIC50: −log10 of the molar value. Active and inactive are the calls of the source. The rule behind the calls is not given here.

Columns and labels:
Fibroblast = assay: Reprogramming activity in human Fibroblast cells harbouring LTR7-GFP assessed as induction of iPSCs from somatic cells by measuring TRA-160 positive colonies at 5 uM measured after 7 days in presence of SOX2/KLF4/L-MYC/LIN28 (SKML); assay type: functional, cell-based; settings: time 7.0 day
NCCIT = assay: Cytotoxicity against human NCCIT cells assessed as inhibition of cell viability measured after 48 hrs by MTT assay; assay type: functional, cell-based
[1] = Cytotoxicity against human HFF cells assessed as inhibition of cell viability measured after 48 hrs by MTT assay; assay type: toxicity, cell-based
[2] = target: Homeobox protein NANOG (Homo sapiens) (UniProt Q9H9S0); assay: Induction of NANOG (unknown origin) expressed in human NCCIT reporter cells assessed as increase in luminescence signal measured after 24 hrs by luciferase reporter assay; assay type: cell-based
Chain of Homeobox protein NANOG (Homo sapiens) (Q9H9S0 whole entry, the tested form may be a part): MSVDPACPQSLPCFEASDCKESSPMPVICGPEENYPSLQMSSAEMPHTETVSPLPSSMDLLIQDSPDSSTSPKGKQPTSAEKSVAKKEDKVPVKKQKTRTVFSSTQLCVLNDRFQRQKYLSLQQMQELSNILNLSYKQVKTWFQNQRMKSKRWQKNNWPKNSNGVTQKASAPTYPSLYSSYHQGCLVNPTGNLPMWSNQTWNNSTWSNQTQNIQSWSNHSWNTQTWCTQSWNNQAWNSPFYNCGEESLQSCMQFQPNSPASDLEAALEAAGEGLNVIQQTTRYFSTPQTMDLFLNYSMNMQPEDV

[3] = target: POU domain, class 5, transcription factor 1 (Homo sapiens) (UniProt Q01860); assay: Induction of OCT4 (unknown origin) expressed in HEK cells assessed as increase in luminescence signal measured after 24 hrs by luciferase reporter assay; assay type: cell-based
Chain of POU domain, class 5, transcription factor 1 (Homo sapiens) (Q01860 whole entry, the tested form may be a part): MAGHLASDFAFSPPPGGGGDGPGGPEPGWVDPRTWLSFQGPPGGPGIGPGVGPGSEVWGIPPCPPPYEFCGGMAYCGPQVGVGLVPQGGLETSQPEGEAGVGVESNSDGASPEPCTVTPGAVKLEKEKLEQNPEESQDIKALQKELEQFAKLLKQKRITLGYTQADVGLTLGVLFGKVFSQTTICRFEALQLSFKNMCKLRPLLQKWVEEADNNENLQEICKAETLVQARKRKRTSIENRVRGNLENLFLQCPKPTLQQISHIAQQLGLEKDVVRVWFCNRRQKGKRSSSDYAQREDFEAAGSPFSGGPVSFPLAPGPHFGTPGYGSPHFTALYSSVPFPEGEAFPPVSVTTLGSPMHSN

[4] = target: POU domain, class 5, transcription factor 1 (Homo sapiens) (UniProt Q01860); assay: Induction of OCT4 (unknown origin) expressed in human NCCIT reporter cells assessed as increase in luminescence signal measured after 24 hrs by luciferase reporter assay; assay type: cell-based
Drosophila = assay: Anti-aging activity in Drosophila assessed as extension of life span; assay type: functional, organism-based

Cc1ccc(-c2cn3cc(C)ccc3n2)cc1
Activity (Fibroblast): Active

CCOC(=O)c1csc(Nc2cc(OC)ccc2OC)n1
pIC50 (NCCIT): < 4.70
IC50 at 48 h [1]: > 20 µM
Activity [2]: inactive
Activity [3]: inactive
Activity [4]: inactive

Clc1ccc(Nc2nc(-c3ccc4ccccc4c3)cs2)cc1
pIC50 (NCCIT): < 4.70
IC50 at 48 h [1]: > 20 µM

CCOC(=O)c1csc(Nc2ccc(Cl)cc2OC)n1
pIC50 (NCCIT): < 4.70
IC50 at 48 h [1]: > 20 µM
Activity [2]: inactive
Activity [3]: inactive
Activity [4]: inactive

CC(C)(C)c1csc(Nc2ccccc2)n1
pIC50 (NCCIT): < 4.70
IC50 at 48 h [1]: > 20 µM

CCOC(=O)c1csc(Nc2ccc(OC)cc2OC)n1
pIC50 (NCCIT): < 4.70
IC50 at 48 h [1]: > 20 µM
Activity [2]: inactive
Activity [3]: inactive
Activity [4]: inactive

CCOC(=O)c1csc(Nc2ccc([N+](=O)[O-])cc2)n1
pIC50 (NCCIT): < 4.70
IC50 at 48 h [1]: > 20 µM
Activity [2]: inactive
Activity ([3]; filed as activator): Active
Activity [4]: inactive

CCOC(=O)c1csc(Nc2ccc(C)cc2Br)n1
pIC50 (NCCIT): < 4.70
IC50 at 48 h [1]: > 20 µM
Activity [2]: inactive
Activity ([3]; filed as activator): Active
Activity [4]: inactive
Activity (Fibroblast): Active

Cc1cccc(Nc2nc(C(C)(C)C)cs2)c1
pIC50 (NCCIT): 5.22
IC50 at 48 h [1]: 11.6 µM

CCOC(=O)c1csc(Nc2cc(C(F)(F)F)cc(C(F)(F)F)c2)n1
pIC50 (NCCIT): < 4.70
IC50 at 48 h [1]: > 20 µM
Activity [2]: inactive
Activity [3]: inactive
Activity [4]: inactive

C=C[C@@]1(C)CC(=O)[C@]2(O)[C@@]3(C)[C@@H](O)CCC(C)(C)[C@@H]3[C@H](O)[C@H](OC(C)=O)[C@@]2(C)O1
Activity (Drosophila): inactive

CC(C)(C)c1csc(Nc2ccc(Cl)cc2)n1
pIC50 (NCCIT): 4.70
IC50 at 48 h [1]: > 20 µM
Activity (Fibroblast): inactive

Clc1ccc(Nc2nc(-c3ccccc3)cs2)cc1
pIC50 (NCCIT): < 4.70
IC50 at 48 h [1]: > 20 µM
